Results on 19 molecules are retold here after patent US20230150951A1, “2,5- OR 2,6-DISUBSTITUTED HYDROQUINONE DERIVATIVES WITH AT LEAST ONE CARBOXY, SULFO OR AMIDO GROUP USEFUL AS MEDICAMENTS” (OM PHARMA SA, priority 2020, published 2023).

A word on the IC50: it is the concentration that gives 50% inhibition.

Holding throughout (assay type): cell-based
One assay concerns IL-1beta. The assay can be described thus: Cytokine release after LPS induction on human whole blood: IL-1β. On the procedure: (§1) Aim of this in vitro method is to assess compounds effects on release of a panel of cytokines from whole blood following lipopolysaccharide (LPS) induced inflammatory reaction. Whole blood was incubated with compounds for 1 h prior to LPS induction. Cytokine levels in blood were measured using a multiplex FACS-based panel.
(§2) IC50 values determined for the tested compounds expressed in microM [μM] and the values for the inhibition of cytokines were listed for each compound.
(§3) Effect on cytokines release after LPS induction was performed on the compounds dissolved in DMSO or H2O to reach 10-fold concentrated stock solutions and dissolved in culture media.
(§4) Test system: Whole blood was removed from a single donor (into lithium heparin coated tubes; BD Vacutainer; 367886) and diluted 1:5 with RPMI 1640 (Thermo Fisher, 61870036). Within 30 minutes of sampling, blood was incubated with compounds for 1 h prior to LPS stimulation (O111:B4—Sigma L4391; 10 ng/ml final concentration). Stimulation continued under standard cell culture conditions (37° C. with 5% CO2) overnight (18 h), after which plates were centrifuged and supernatant removed and frozen at −80° C. until used for analyses.
(§5) Dilution of test compounds: 10×concentrated solutions (concerning to the final assay concentrations) of each test compound were prepared with the appropriate solvent (in DMSO or in water). These 10× compound solutions (10 μl) were then added to 90 μl pre-diluted whole blood (whole blood: RPMI1640, 1:5) resulting in the final assay concentration.
(§6) Test method: Diluted whole blood (80 μl) was pre-incubated with compounds (10 μl) to give final assay concentrations of 100, 30, 10, 3, 1, 0.3 and 0.1×10^−6M. Blood was incubated at 37° C. with 5% CO2 for 1 h. LPS was diluted in cell culture media to a concentration of […]; 10 μl was added to the whole blood to give a final concentration of 10 ng/ml. Plates were incubated at 37° C. for 18 h. Plates were centrifuged at 3,000 RPM for 5 minutes at 4° C. and supernatant removed and frozen at −80° C. until FACS analysis was carried out.
(§7) Cytokine release was measured using a custom multiplex system (ELISA Genie) according to manufacturers instructions. Prepared samples were run on an Attune NxT flow cytometer (Thermo Fisher).
(§8) Quantification of cytokine release inhibition: known concentration standards were run as part of the cytokine panel to allow quantification of each cytokine concentration in each sample. This was carried out using FCAP Array v3.0 software.
(§9) Results: The dose response relationship on cytokine release following LPS induction of inflammatory response in whole blood was assessed for all compounds. IC50 values were determined for each compound for a panel of cytokines (GM-CSF, IFN-gamma, IL-1beta, IL-2, IL-4, IL-5, IL-6, IL-8, IL-9, IL-10, IL-12p40, IL-13, IL-17A, IL-17F, IL-18, IL-21, IL-22, IL-33, TGF-beta, TNF-alpha, TNF-beta).

The target of a further assay is T1, FGF-1 (Homo sapiens, UniProt P05230).
T1 construct: purchased Peprotech 100-17A
T1 sequence (P05230 whole entry): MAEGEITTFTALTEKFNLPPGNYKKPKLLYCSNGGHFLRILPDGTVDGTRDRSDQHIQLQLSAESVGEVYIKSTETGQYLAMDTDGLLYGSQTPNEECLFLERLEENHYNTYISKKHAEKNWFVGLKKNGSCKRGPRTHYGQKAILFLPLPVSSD
Put plainly: FGF-1 induced sprouting of HUVEC, spheroid-based cellular angiogenesis assay. To be noted: FGF-1 25 ng/mL preincubated with compound, 24 h. In short, it runs like this: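 Spheroids of 400 HUVEC (passage 3–4), embedded in collagen gel, were stimulated with FGF-1, FGF-2 or VEGF-A (final 25 ng/mL) preincubated 30 min at 37°C with compound (final 1.56–100 μM).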

The next assay relates to IL-17F. Put plainly: Cytokine release after LPS induction on human whole blood: IL-17F. Here is the method: as §1, §2, §3, §4, §5, §6, §7, §8, §9
[1] abbreviates: Homo sapiens, LPS 10 ng/ml, 18 h, read-out: Whole Blood: IL-1β IC50.
Where [2] appears, read: human whole blood, inhibition of LPS induced inflammation, read-out: IC50 IL-1b.
Setting [3] is: Homo sapiens, LPS 10 ng/ml, 18 h, read-out: Whole Blood: IL-17F IC50.
[4] abbreviates: human whole blood, inhibition of LPS induced inflammation, read-out: IC50 IL-17F.

Where two headings read alike, the source gives them in different places.

`O=C(O)Cc1cc(O)c(C(=O)Nc2ccccc2-c2nnn[nH]2)cc1O` [IIIa-001aTz]: the IC50 was more than 100 µM in the assay on IL-1beta (setting [1]); 100 µM in the assay on IL-1beta (setting [2]); 51 µM at FGF-1; 0.16 µM in the assay on IL-17F (setting [3]); 0.16 µM with IL-17F (setting [4]).
Regarding `O=C(O)Cc1cc(O)c(C(=O)Nc2c(C(=O)O)cccc2C(=O)O)cc1O` [IIIa-013a, 2-(4-(carboxymethyl)-2,5-dihydroxybenzamido)isophthalic acid], the concentration for half-maximal inhibition (IC50) in the assay on IL-1beta (setting [1]) was more than 100 µM; with IL-1beta (setting [2]) it was 100 µM; at FGF-1, 17 µM; with IL-17F (setting [3]), 0.41 µM; with IL-17F (setting [4]), 0.41 µM.
`CC(=O)N(Cc1cc(O)c(C(=O)O)cc1O)Cc1cc(O)c(C(=O)O)cc1O` [IIIc-057a, N,N-Bis(4-carboxy-2,5-dihydroxyphenylmethyl)acetamide]: the IC50 turned out to be 16.2 µM in the assay on IL-1beta (setting [1]); 16.2 µM with IL-1beta (setting [2]); 87 µM at FGF-1; 5.06 µM in the assay on IL-17F (setting [3]); 5.06 µM with IL-17F (setting [4]).
In the case of `O=C(O)c1cc(O)c(CN(Cc2cc(O)c(C(=O)O)cc2O)Cc2cc(O)c(C(=O)O)cc2O)cc1O` [IIIc-061a, Tris(4-carboxy-2,5-dihydroxyphenylmethyl)amine], the IC50 in the assay on IL-1beta (setting [1]) was more than 100 µM; with IL-1beta (setting [2]), 100 µM; with IL-17F (setting [3]), 0.32 µM; in the assay with IL-17F (setting [4]), 0.32 µM.
Consider `O=C(O)c1ccccc1CNC(=O)c1cc(O)cc(C(=O)O)c1O` [IIa-053a, 3-(2-Carboxyphenylmethylaminocarbonyl)-2,5-dihydroxybenzoic acid], for which the concentration for half-maximal inhibition (IC50) in the assay with IL-1beta (setting [1]) was more than 100 µM; in the assay with IL-1beta (setting [2]), 100 µM; at FGF-1, 84 µM; with IL-17F (setting [3]) it was 28.8 µM; in the assay on IL-17F (setting [4]), 28.8 µM.
For `O=C(O)c1cc(NC(=O)c2cc(O)cc(C(=O)Nc3ccc(O)c(C(=O)O)c3)c2O)ccc1O` [IIc-007a, 5-(3-(3-carboxy-4-hydroxyphenylaminocarbonyl)-2,5-dihydroxybenzamido)-2-hydroxy benzoic acid], the 50% inhibitory concentration (IC50) was more than 100 µM in the assay with IL-1beta (setting [1]); 100 µM in the assay with IL-1beta (setting [2]); 11 µM on FGF-1; 0.26 µM in the assay with IL-17F (setting [3]); 0.26 µM in the assay on IL-17F (setting [4]).
Regarding `O=C(O)c1cc(O)ccc1NC(=O)c1cc(O)cc(C(=O)Nc2ccc(O)cc2C(=O)O)c1O` [IIc-009a, 2-(3-(2-carboxy-4-hydroxyphenylaminocarbonyl)-2,5-dihydroxybenzamido)-5-hydroxyl benzoic acid], the IC50 was more than 100 µM in the assay with IL-1beta (setting [1]); 100 µM in the assay on IL-1beta (setting [2]); 30 µM at FGF-1; 0.13 µM in the assay with IL-17F (setting [3]); 0.13 µM in the assay with IL-17F (setting [4]).
With `O=C(O)c1cc(O)cc(CSCc2cc(O)cc(C(=O)O)c2O)c1O` [IVc-058a, 3-((2,5-Dihydroxy-3-carboxyphenyl)methylthiomethyl)-2,5-dihydroxybenzoic acid], the IC50 amounted to 27.5 µM with IL-1beta (setting [1]); 27.5 µM with IL-1beta (setting [2]); 36 µM on FGF-1; 86.8 µM in the assay with IL-17F (setting [3]); 86.8 µM in the assay on IL-17F (setting [4]).
Consider `O=C(O)c1cc(O)cc(CS(=O)(=O)Cc2cc(O)cc(C(=O)O)c2O)c1O` [IVc-059a, 3-((2,5-Dihydroxy-3-carboxyphenyl)methylsulfonylmethyl)-2,5-dihydroxybenzoic acid], for which the IC50 is 38.6 µM with IL-1beta (setting [1]); 38.6 µM in the assay with IL-1beta (setting [2]); 6.7 µM on FGF-1; more than 100 µM in the assay on IL-17F (setting [3]); 100 µM with IL-17F (setting [4]).
For the molecule `COC(=O)c1cc(OC(C)=O)cc(CS(=O)(=O)Cc2cc(OC(C)=O)cc(C(=O)OC)c2OC(C)=O)c1OC(C)=O` [IVc-059a-E2-A4], the IC50 in the assay on IL-1beta (setting [1]) worked out at 14.1 µM; in the assay on IL-1beta (setting [2]) it was 14.1 µM; on FGF-1 it was 54 µM; in the assay with IL-17F (setting [3]), 25.8 µM; in the assay with IL-17F (setting [4]), 25.8 µM.
As for `O=C(O)c1cc(O)c(C(=O)Nc2ccccc2C(=O)O)cc1O` [Ia-001a, 4-(2-carboxyphenylaminocarbonyl)-2,5-dihydroxybenzoic acid], the IC50 is 34.4 µM in the assay on IL-1beta (setting [1]); 34.4 µM in the assay on IL-1beta (setting [2]); 41 µM at FGF-1; 14.7 µM with IL-17F (setting [3]); 14.7 µM with IL-17F (setting [4]).
Turning to `O=C(O)c1cc(O)c(C(=O)Nc2ccccc2-c2nnn[nH]2)cc1O` [Ia-001a-Tz, 4-(2-(1H-tetrazol-5-yl)phenyl-aminocarbonyl)-2,5-dihydroxybenzoic acid], the 50% inhibitory concentration (IC50) is more than 100 µM in the assay with IL-1beta (setting [1]); 100 µM in the assay on IL-1beta (setting [2]); 6.2 µM on FGF-1; 46.5 µM in the assay on IL-17F (setting [3]); 46.5 µM with IL-17F (setting [4]).
In the case of `O=C(O)c1cc(O)c(C(=O)Nc2ccccc2S(=O)(=O)O)cc1O` [Ia-001c, 2,5-dihydroxy-4-(2-sulfophenylaminocarbonyl)benzoic acid], the half-maximal inhibitory concentration (IC50) is more than 100 µM with IL-1beta (setting [1]); 100 µM in the assay with IL-1beta (setting [2]); 21 µM at FGF-1; 89.7 µM with IL-17F (setting [3]); 89.7 µM with IL-17F (setting [4]).
With `O=C(O)c1cc(O)c(C(=O)Nc2ccc(-c3nnn[nH]3)cc2)cc1O` [Ia-003a-Tz, 4-(4-(1H-tetrazol-5-yl)phenyl-aminocarbonyl)-2,5-dihydroxybenzoic acid], the half-maximal inhibitory concentration (IC50) was more than 100 µM in the assay on IL-1beta (setting [1]); 100 µM in the assay on IL-1beta (setting [2]); 6.7 µM on FGF-1; 83.9 µM in the assay on IL-17F (setting [3]); 83.9 µM in the assay on IL-17F (setting [4]).
Take `O=C(O)c1cc(NC(=O)c2cc(O)c(C(=O)O)cc2O)cc(C(=O)O)c1` [Ia-015a, 5-(4-carboxy-2,5-dihydroxybenzamido)isophthalic acid]: the half-inhibitory concentration (IC50) in the assay on IL-1beta (setting [1]) is more than 100 µM; in the assay on IL-1beta (setting [2]), 100 µM; on FGF-1, 20 µM; in the assay with IL-17F (setting [3]) it was 0.15 µM; in the assay with IL-17F (setting [4]), 0.15 µM.
Take `O=C(O)c1cc(NC(=O)c2cc(O)c(C(=O)O)cc2O)cc(NC(=O)c2cc(O)c(C(=O)O)cc2O)c1` [Ib-010a, 3,5-bis(2,5-dihydroxy-4-carboxybenzoylamino)benzoic acid]: the half-maximal inhibitory concentration (IC50) in the assay with IL-1beta (setting [1]) is 33.3 µM; in the assay on IL-1beta (setting [2]), 33.3 µM; on FGF-1 it was 14 µM; in the assay with IL-17F (setting [3]), more than 100 µM; with IL-17F (setting [4]), 100 µM.
As for `CCOC(=O)c1cc(NC(=O)c2cc(O)c(C(=O)OCC)cc2O)cc(NC(=O)c2cc(O)c(C(=O)OCC)cc2O)c1` [Ib-010a-E3, ethyl 3,5-bis(2,5-dihydroxy-4-ethoxycarbonylbenzoylamino)benzoate], the IC50 in the assay with IL-1beta (setting [1]) was more than 100 µM; in the assay on IL-1beta (setting [2]) it was 100 µM; on FGF-1, 26 µM; in the assay on IL-17F (setting [3]), 34.2 µM; in the assay on IL-17F (setting [4]), 34.2 µM.
`O=C(O)c1cc(NC(=O)c2cc(O)c(C(=O)Nc3ccccc3-c3nnn[nH]3)cc2O)ccc1O` [Ic-001a-Tz/004a, 5-(4-(2-(1H-tetrazol-5-yl)phenylaminocarbonyl)-2,5-dihydroxybenzamido)-2-hydroxy benzoic acid]: the IC50 in the assay with IL-1beta (Homo sapiens, 18 h, read-out: Whole Blood: IL-1β IC50) is more than 100 µM; with IL-1beta (Homo sapiens, read-out: IC50 IL-1b), 100 µM; at FGF-1, 19 µM; in the assay with IL-17F (Homo sapiens, 18 h, read-out: Whole Blood: IL-17F IC50), 2.4 µM; in the assay on IL-17F (Homo sapiens, read-out: IC50 IL-17F), 2.4 µM.
With `O=C(Nc1ccccc1-c1nnn[nH]1)c1cc(O)c(C(=O)Nc2ccccc2-c2nnn[nH]2)cc1O` [Ic-001aTz2, N1,N4-bis(2-(1H-tetrazol-5-yl)phenyl)-2,5-dihydroxyterephthalamide], the IC50 with IL-1beta (setting [1]) was more than 100 µM; at FGF-1 it was not below 200 µM; in the assay on IL-17F (setting [3]), 0.15 µM.
